# US20240043928A1, “BIOMARKERS FOR MYELODYSPLASTIC SYNDROME (MDS) AND METHODS OF USING THE SAME” (Eisai R&D Management Co., Ltd., priority 2020, published 2024)
# Experiment: Phase I study NCT02841540: treatment-related adverse events and dose-limiting toxicities
# Assay type: in vivo, human
# Description: Patients were enrolled using a conventional 3+3 dose escalation phase I design, with escalations based on a modified Fibonacci sequence scheme (Storer Biometrics. 1989;45(3):925-937). Dose escalations continued until a dose level at which ≥2 patients of the 3-6 enrolled experienced a dose-limiting toxicity (DLT). Maximally tolerated dose (MTD) was defined as the highest dose at which no more than 1 out of 6 patients experienced a DLT. DLTs were defined as any of the following: any Grade 3 or greater study drug-related non-hematologic toxicity except for Grade 3 nausea, vomiting, fatigue, or diarrhea that resolved to Grade 1 or less within 1 week; failure to administer at least 70% of the protocol-specific dose; or prolonged myelosuppression with the persistence of Grade 4 cytopenia in the absence of persistent leukemia or blast increase 21 or more days after suspending dosing. DLTs were assessed during the first 28 days using National Cancer Institute (NCI) Common Toxicity Criteria for Adverse Events (CTCAE) version 4.03.
# The primary endpoints measured included occurrence of DLTs, the type and frequency of treatment-emergent adverse events (TEAEs), and serious adverse events (SAEs). Key secondary endpoints included drug pharmacokinetics (PK) and preliminary antitumor activity, such as the overall response rate (ORR), effect of drug therapy on transfusion requirements, and overall survival (OS). Biomarker analyses and drug pharmacodynamics (PD) were included as exploratory endpoints. […] In addition, a second schedule (Schedule II) of 21 days on therapy and a rest of 7 days without therapy was explored. […] However, when limited clinical activity was observed on Schedule I, Schedule II was introduced to test whether more prolonged spliceosome modulation would lead to higher clinical activity. Each treatment cycle was 28 days in length. Patients could continue treatment until disease progression or development of unacceptable toxicity.
# Eligibility criteria included normal vitamin A levels and visual acuity that corrected to 20/40 unless a cataract was present. Ophthalmologic evaluation, including fundoscopic imaging and visual evoked potentials, was performed during study screening and periodically throughout the duration of the trial.
# [1] = Schedule I, 1, 2, 3.5, & 5 mg QD, N = 25
structure (smiles),measurement,setting,value
"C/C(=C\C=C\[C@@H](C)c1ccccn1)[C@H]1OC(=O)C[C@H](O)CC[C@@](C)(O)[C@@H](OC(=O)N2CCN(C)CC2)/C=C/[C@@H]1C [Compound 1, (2S,3S,4E,6S,7R,10R)-7,10-dihydroxy-3,7-dimethyl-12-oxo-2-[(2E,4E,6R)-6-(pyridine-2-yl)hepta-2,4-dien-2-yl]oxacyclododec-4-en-6-yl-4-methylpiperazine-1-carboxylate]",adverse event in a patient with SF3B1-mutant lower-risk MDS,"7 mg, Schedule I, first week of study therapy",developed pancytopenia and marrow aplasia
same,male share of subjects who reported grade 3 treatment related AEs,9 of the 12 subjects,75%
same,male share of subjects reporting treatment related AEs (all grades),45 of the 63 subjects,71%
same,"MTD (initially defined, not formally confirmed)",Schedule I,30 mg
same,recommended QD dose,Schedule I,30 mg per day
same,dose dependency in the rate of treatment related TEAEs (all grades),"Schedule I, 1 mg-40 mg",no obvious dose dependency
same,"Any TEAE (treatment-related, all grades)","Schedule I, 7 mg QD, N = 14",11 (79) n (%)
same,"Diarrhea (treatment-related TEAE, all grades)","Schedule I, 7 mg QD, N = 14",4 (29) n (%)
same,"Fatigue (treatment-related TEAE, all grades)","Schedule I, 7 mg QD, N = 14",2 (14) n (%)
same,"Nausea (treatment-related TEAE, all grades)","Schedule I, 7 mg QD, N = 14",4 (29) n (%)
same,"Vomiting (treatment-related TEAE, all grades)","Schedule I, 7 mg QD, N = 14",2 (14) n (%)
same,patients with DLT marrow aplasia,"Schedule I, 7 mg, lower-risk MDS and SF3B1 mutation",1 patient
same,"Any TEAE (treatment-related, all grades)","Schedule I, 10 mg QD, N = 7",3 (43) n (%)
same,"Diarrhea (treatment-related TEAE, all grades)","Schedule I, 10 mg QD, N = 7",2 (29) n (%)
same,"Fatigue (treatment-related TEAE, all grades)","Schedule I, 10 mg QD, N = 7",1 (14) n (%)
same,"Nausea (treatment-related TEAE, all grades)","Schedule I, 10 mg QD, N = 7",2 (29) n (%)
same,"Vomiting (treatment-related TEAE, all grades)","Schedule I, 10 mg QD, N = 7",2 (29) n (%)
same,"Any TEAE (treatment-related, all grades)","Schedule I, 14 mg QD, N = 5",5 (100) n (%)
same,"Diarrhea (treatment-related TEAE, all grades)","Schedule I, 14 mg QD, N = 5",5 (100) n (%)
same,"Fatigue (treatment-related TEAE, all grades)","Schedule I, 14 mg QD, N = 5",0 n (%)
same,"Nausea (treatment-related TEAE, all grades)","Schedule I, 14 mg QD, N = 5",1 (20) n (%)
same,"Vomiting (treatment-related TEAE, all grades)","Schedule I, 14 mg QD, N = 5",1 (20) n (%)
same,"Any TEAE (treatment-related, all grades)","Schedule I, 20 mg QD, N = 4",3 (75) n (%)
same,"Diarrhea (treatment-related TEAE, all grades)","Schedule I, 20 mg QD, N = 4",1 (25) n (%)
same,"Fatigue (treatment-related TEAE, all grades)","Schedule I, 20 mg QD, N = 4",2 (50) n (%)
same,"Nausea (treatment-related TEAE, all grades)","Schedule I, 20 mg QD, N = 4",2 (50) n (%)
same,"Vomiting (treatment-related TEAE, all grades)","Schedule I, 20 mg QD, N = 4",0 n (%)
same,"Any TEAE (treatment-related, all grades)","Schedule I, 30 mg QD, N = 4",4 (100) n (%)
same,"Diarrhea (treatment-related TEAE, all grades)","Schedule I, 30 mg QD, N = 4",3 (75) n (%)
same,"Fatigue (treatment-related TEAE, all grades)","Schedule I, 30 mg QD, N = 4",1 (25) n (%)
same,"Nausea (treatment-related TEAE, all grades)","Schedule I, 30 mg QD, N = 4",3 (75) n (%)
same,"Vomiting (treatment-related TEAE, all grades)","Schedule I, 30 mg QD, N = 4",0 n (%)
same,patients with DLT prolonged QTcF >500 msec (investigator-assessed),"Schedule I, 40 mg",2 out of 6
same,subjects reporting grade 3 AEs,"Schedule I, 40 mg",3 of 6
same,"Any TEAE (treatment-related, all grades)","Schedule I, 40 mg QD, N = 6",5 (83) n (%)
same,"Diarrhea (treatment-related TEAE, all grades)","Schedule I, 40 mg QD, N = 6",5 (83) n (%)
same,"Fatigue (treatment-related TEAE, all grades)","Schedule I, 40 mg QD, N = 6",2 (33) n (%)
same,"Nausea (treatment-related TEAE, all grades)","Schedule I, 40 mg QD, N = 6",3 (50) n (%)
same,"Vomiting (treatment-related TEAE, all grades)","Schedule I, 40 mg QD, N = 6",3 (50) n (%)
same,subjects reporting a treatment related TEAE,"Schedule I, 40 mg, N=6",83%
same,"Any TEAE (treatment-related, all grades)",[1],19 (76) n (%)
same,"Diarrhea (treatment-related TEAE, all grades)",[1],7 (28) n (%)
same,"Fatigue (treatment-related TEAE, all grades)",[1],3 (12) n (%)
same,"Nausea (treatment-related TEAE, all grades)",[1],3 (12) n (%)
same,"Vomiting (treatment-related TEAE, all grades)",[1],1 (4) n (%)
same,Anemia (Grade 3 or 4 treatment-related TEAE),"Schedule I, N = 65",4 (6) n (%)
same,ECG QTcF prolonged (Grade 3 or 4 treatment-related TEAE),"Schedule I, N = 65",2 (3) n (%)
same,Fatigue (Grade 3 or 4 treatment-related TEAE),"Schedule I, N = 65",2 (3) n (%)
same,Hypophosphatemia (Grade 3 or 4 treatment-related TEAE),"Schedule I, N = 65",0 n (%)
same,Nausea (Grade 3 or 4 treatment-related TEAE),"Schedule I, N = 65",0 n (%)
same,Platelet count decreased (Grade 3 or 4 treatment-related TEAE),"Schedule I, N = 65",2 (3) n (%)
same,Sinus bradycardia (Grade 3 or 4 treatment-related TEAE),"Schedule I, N = 65",0 n (%)
same,"Any TEAE (treatment-related, all grades)","Schedule I, Total, N = 65",50 (77) n (%)
same,"Diarrhea (treatment-related TEAE, all grades)","Schedule I, Total, N = 65",27 (42) n (%)
same,"Fatigue (treatment-related TEAE, all grades)","Schedule I, Total, N = 65",11 (17) n (%)
same,"Nausea (treatment-related TEAE, all grades)","Schedule I, Total, N = 65",18 (28) n (%)
same,"Vomiting (treatment-related TEAE, all grades)","Schedule I, Total, N = 65",9 (14) n (%)
same,"diarrhea, treatment-related TEAE","Schedule I, all patients",42%
same,"fatigue, treatment-related TEAE","Schedule I, all patients",17%
same,"nausea, treatment-related TEAE","Schedule I, all patients",28%
same,"vomiting, treatment-related TEAE","Schedule I, all patients",14%
same,subjects reporting a treatment related TEAE,"Schedule I, lowest combined dose level (1, 2, 3.5 and 5 mg, N=25)",76%
same,"MTD (initially defined, not formally confirmed)",Schedule II,14 mg
same,recommended QD dose,Schedule II,14 mg per day
same,"Any TEAE (treatment-related, all grades)","Schedule II, 7 mg QD, N = 5",1 (20) n (%)
